The values that follow come from patent publication US7365088B2, “Indazole-derivatives as factor Xa inhibitors” (Sanofi-Aventis Deutschland GmbH, priority 2003, dated 2008).

In the assay the target is human factor Xa (Homo sapiens, UniProt P00742). Description: Factor Xa assay (chromogenic, substrate S-2765).
Chain of human factor Xa (P00742 235-488 limits assumed): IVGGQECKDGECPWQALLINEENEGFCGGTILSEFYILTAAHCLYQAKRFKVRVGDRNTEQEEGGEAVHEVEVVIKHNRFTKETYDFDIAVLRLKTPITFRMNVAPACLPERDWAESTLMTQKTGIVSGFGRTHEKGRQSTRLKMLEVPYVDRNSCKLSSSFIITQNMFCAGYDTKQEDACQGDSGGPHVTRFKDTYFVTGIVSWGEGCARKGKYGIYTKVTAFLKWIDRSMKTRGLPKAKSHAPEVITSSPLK
Chain of human factor Xa (P00742 41-179 partner limits assumed): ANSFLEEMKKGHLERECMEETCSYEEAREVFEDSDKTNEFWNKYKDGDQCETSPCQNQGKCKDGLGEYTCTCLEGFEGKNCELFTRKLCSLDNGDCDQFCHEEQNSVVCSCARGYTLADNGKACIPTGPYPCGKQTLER
`CONC(=O)c1ccc2c(c1)c(C(=O)NC1CCN(C(C)C)CC1)nn2Cc1cc(-c2ccc(Cl)s2)on1` [Example 32, 1-[5-(5-Chloro-thiophen-2-yl)-isoxazol-3-ylmethyl]-1H-indazole-3,5-dicarboxylic acid 3-[(1-isopropyl-piperidin-4-yl)-amide]5-(methoxy-amide)]: affinity was put at a Ki of 22 nM.
Compound `CC(C)N1CCC(NC(=O)c2nn(Cc3cc(-c4ccc(Cl)s4)on3)c3ccc(C(=O)NCC(N)=O)cc23)CC1` [Example 21, 1-[5-(5-Chloro-thiophen-2-yl)-isoxazol-3-ylmethyl]-1H-indazole-3,5-dicarboxylic acid 5-carbamoylmethyl-amide 3-[(1-isopropyl-piperidin-4-yl)-amide]] had a Ki of 33 nM.
With `CC(C)N1CCC(NC(=O)c2nn(Cc3cc(-c4ccc(Cl)s4)on3)c3ccc(C(=O)NCC(F)F)cc23)CC1` [Example 20, 1-[5-(5-Chloro-thiophen-2-yl)-isoxazol-3-ylmethyl]-1H-indazole-3,5-dicarboxylic acid 5-[(2,2-difluoro-ethyl)-amide]3-[(1-isopropyl-piperidin-4-yl)-amide]] the figure was 47 nM; with `CC(C)N1CCC(NC(=O)c2nn(Cc3cc(-c4ccc(Cl)s4)on3)c3ccc(C(=O)N4CCC4)cc23)CC1` [Example 12, 5-(Azetidine-1-carbonyl)-1-[5-(5-chloro-thiophen-2-yl)-isoxazol-3-ylmethyl]-1H-indazole-3-carboxylic acid (1-isopropyl-piperidin-4-yl)-amide], 5 nM; with `CC(C)N1CCC(NC(=O)c2nn(Cc3cc(-c4ccc(Cl)s4)on3)c3ccc(C(=O)N4CCCOCC4)cc23)CC1` [Example 30, 1-[5-(5-Chloro-thiophen-2-yl)-isoxazol-3-ylmethyl]-5-([1,4]oxazepane-4-carbonyl)-1H-indazole-3-carboxylic acid (1-isopropyl-piperidin-4-yl)-amide], 12 nM.
With `CC(C)N1CCC(NC(=O)c2nn(Cc3cc(-c4ccc(Cl)s4)on3)c3ccc(C(=O)OCCO)cc23)CC1` [Example 29, 1-[5-(5-Chloro-thiophen-2-yl)-isoxazol-3-ylmethyl]-3-(1-isopropyl-piperidin-4-ylcarbamoyl)-1H-indazole-5-carboxylic acid 2-hydroxy-ethyl ester] the figure was 39 nM; with `CC(C)N1CCC(NC(=O)c2nn(Cc3cc(-c4ccc(Cl)s4)on3)c3ccc(C(=O)NCCO)cc23)CC1` [Example 22, 1-[5-(5-Chloro-thiophen-2-yl)-isoxazol-3-ylmethyl]-1H-indazole-3,5-dicarboxylic acid 5-[(2-hydroxy-ethyl)-amide]3-[(1-isopropyl-piperidin-4-yl)-amide]], 28 nM; with `CC(C)N1CCC(NC(=O)c2nn(Cc3cc(-c4ccc(Cl)s4)on3)c3ccc(C(=O)NCCS(N)(=O)=O)cc23)CC1` [Example 14, 1-[5-(5-Chloro-thiophen-2-yl)-isoxazol-3-ylmethyl]-1H-indazole-3,5-dicarboxylic acid 3-[(1-isopropyl-piperidin-4-yl)-amide]5-[(2-sulfamoyl-ethyl)-amide]], 28 nM.
In the case of `CC(C)N1CCC(NC(=O)c2nn(Cc3cc(-c4ccc(Cl)s4)on3)c3cccc(-c4noc(=O)[nH]4)c23)CC1` [Example 11, 1-[5-(5-Chloro-thiophen-2-yl)-isoxazol-3-ylmethyl]-4-(5-oxo-4,5-dihydro-[1,2,4]oxadiazol-3-yl)-1H-indazole-3-carboxylic acid (1-isopropyl-piperidin-4-yl)-amide] it was 7 nM.
Regarding `CC(C)N1CCC(NC(=O)c2nn(Cc3cc(-c4ccc(Cl)s4)on3)c3ccc(C(=O)NCC(=O)O)cc23)CC1` [Example 25, {[1-[5-(5-Chloro-thiophen-2-yl)-isoxazol-3-ylmethyl]-3-(1-isopropyl-piperidin-4-ylcarbamoyl)-1H-indazole-5-carbonyl]-amino}-acetic acid], the Ki was 14 nM.
In the case of `Cc1oc(=O)oc1COC(=O)c1ccc2c(c1)c(C(=O)NC1CCN(C(C)C)CC1)nn2Cc1cc(-c2ccc(Cl)s2)on1` [Example 50, 1-[5-(5-Chloro-thiophen-2-yl)-isoxazol-3-ylmethyl]-3-(1-isopropyl-piperidin-4-ylcarbamoyl)-1H-indazole-5-carboxylic acid 5-methyl-2-oxo-[1,3]dioxol-4-ylmethyl ester] it was 41 nM; in that of `CCOC(=O)OC(C)OC(=O)c1ccc2c(c1)c(C(=O)NC1CCN(C(C)C)CC1)nn2Cc1cc(-c2ccc(Cl)s2)on1` (stereo not drawn) [Example 9, 1-[5-(5-Chloro-thiophen-2-yl)-isoxazol-3-ylmethyl]-3-(1-isopropyl-piperidin-4-ylcarbamoyl)-1H-indazole-5-carboxylic acid 1-ethoxycarbonyloxy-ethyl ester], 82 nM.
In the case of `O=C(Nc1ccc(C(=O)N2CCOCC2)cc1)c1nn(Cc2cc(-c3ccc(Cl)s3)on2)c2ccccc12` [Example 35, 1-[5-(5-Chloro-thiophen-2-yl)-isoxazol-3-ylmethyl]-1H-indazole-3-carboxylic acid [4-(morpholine-4-carbonyl)-phenyl]-amide] it was 530 nM; in that of `CC(C)N1CCC(NC(=O)c2nn(Cc3cc(-c4ccc(Cl)s4)on3)c3ccc(C(=O)N4CC[C@H]4C(=O)O)cc23)CC1` [Example 26, 1-[1-[5-(5-Chloro-thiophen-2-yl)-isoxazol-3-ylmethyl]-3-(1-isopropyl-piperidin-4-ylcarbamoyl)-1H-indazole-5-carbonyl]-(2S)-azetidine-2-carboxylic acid], 17 nM; in that of `CC(C)N1CCC(NC(=O)c2nn(Cc3cc(-c4ccc(Cl)s4)on3)c3cc(C(=O)O)ccc23)CC1` [Example 6, 1-[5-(5-Chloro-thiophen-2-yl)-isoxazol-3-ylmethyl]-3-(1-isopropyl-piperidin-4-ylcarbamoyl)-1H-indazole-6-carboxylic acid], 212 nM.
